Assay results published in patent publication US20060189581A1, “Compounds and methods for treating transplant rejection” (AtheroGenics, Inc., priority 1997, published 2006).
“Also recorded” adds a separate entry of the source. Where two headings read alike, the source gives them in different places.

What was measured:
[1] = Plasma compound levels in the rat aortic allograft study; format: in vivo; settings: Lewis, subcutaneous, after 90 days of dosing, read-out: trough plasma levels
Experimental: (§1) Compound A was administered subcutaneously to recipient animals three days prior to the surgery and once daily for 90 days thereafter. […] Thereafter, the dose was reduced to 30 mg/kg/d for 6 days and then further reduced to 5 mg/kg/d for the remainder of the study.
(§2) On day 90, the allograft segment was removed, fixed in 10% buffered formalin and paraffin embedded. Sections were stained with von Geisson's elastic stain, and intima-to-media area (IM) ratio and percent luminal narrowing (% LN) were assessed by digital morphometry (See FIGS. 1 and 2). Blood was collected at regular intervals throughout the study and plasma evaluated for compound levels (See FIG. 3).

[2] = system: ACI rat aorta transplanted into Lewis rat (graft arteriosclerosis); test: Rat aortic allograft model (graft arteriosclerosis); format: in vivo
Experimental: Compound A was evaluated for graft arteriosclerosis resulting from aortic heterotropic transplantation. This is a model of graft arteriopathy which is the major obstacle to long term success of solid organ transplantation.
Donor descending aortas from ACI rats were heterotypically transplanted into Lewis rat abdomens in end-to-end fashion with minimal ischemic time. 55 rats were assigned to five groups as follows:
as §1, §2

CC(C)(Sc1cc(C(C)(C)C)c(O)c(C(C)(C)C)c1)Sc1cc(C(C)(C)C)c(OCCCC(=O)O)c(C(C)(C)C)c1 [Compound A, 4-[4-[[1-[[3,5-bis(1,1-dimethylethyl)-4-hydroxyphenyl]thio]-1-methylethyl]thio]-2,6-bis(1,1-dimethylethyl)phenoxy]butyric acid]
concentration at 90 days ([1]; 10 mg/kg/d subcutaneously): 10 µM | concentration at 90 days ([1]; 20 mg/kg/d subcutaneously): 18 µM | concentration at 90 days ([1]; 40/30/5 mg/kg/d subcutaneously): 28 µM | IM ratio and % LN compared to the vehicle group ([2]; 20 mg and 40/30/5 mg/kg/d doses, day 90): significantly lower | efficacy and gross toxicity ([2]; 20 mg/kg/d subcutaneously): efficacious without grossly discernable toxic side effects | adverse findings (body weight, skin) ([2]; 40 mg/kg/d subcutaneously, until the dose was reduced): failure to gain weight and skin irritation; also recorded: initially lost weight | inhibition of aortic neointimal growth ([2]; 10, 20 and 40/30/5 mg/kg/d subcutaneously, 90 days): dose-dependent inhibition | tolerability of treatment ([2]; 10 and 20 mg/kg/d subcutaneously, animals regained weight post surgery): well tolerated | percent inhibition of the % LN (percent luminal narrowing) ([2]; 40/30/5 mg/kg/d subcutaneously, day 90, compared to vehicle control): 52%
